How the values were obtained:
DERL-7 (IL-2 2.5 ng/mL) [1] = test: relative IC50 (inflection point of fitted viability curve, relative to fitted max inhibition); higher = less sensitive; settings: 72 h
Procedure: (§1)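 Drug sensitivity and resistance testing: 5 concentrations over a 10,000-fold range, 72 h at 37 °C, viability by CellTiter-Glo normalised to DMSO and benzethonium chloride controls. IC50 is the inflection point of a logistic fit (min fixed at 0, max fitted), so it is relative to the fitted maximal inhibition. Kept only where fitted max inhibition is at least 50%.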

NKL (IL-2 2.5 ng/mL) [2] = test: as above; settings: 72 h
Procedure: as §1

KAI3 (IL-2 2.5 ng/mL) [3] = test: as above; settings: 72 h
Procedure: as §1

NK-92 (IL-2 2.5 ng/mL) [4] = test: as above; settings: 72 h
Procedure: as §1

[5] = tested on: normal NK cells expanded with K562-aAPC; test: drug sensitivity score (DSS) (DSS units); higher = more sensitive; extreme values may be limits of the assay; settings: 72 h; IL-2 2.5 ng/mL
Procedure: (§2)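 Drug sensitivity and resistance testing on K562-aAPC-expanded normal NK cells: 5 concentrations (10-fold steps over a 10,000-fold range), 72 h at 37 °C, viability by CellTiter-Glo normalised to DMSO and benzethonium chloride controls; DSS from the fitted curve.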

[6] = tested on: normal NK cells expanded with K562-aAPC; test: percent inhibition of viability; higher = more inhibition; settings: 72 h, IL-2 2.5 ng/mL
Procedure: as §2

[7] = tested on: normal primary NK cells, pool 1 (3 donors), resting (IL-2 0 ng/mL); test: as above; settings: 72 h
[8] = tested on: normal primary NK cells, pool 2 (3 donors) (IL-2 2.5 ng/mL); test: as above; settings: 72 h
KAI3 (IL-2 2.5 ng/mL) [9] = test: as above; settings: 72 h
KHYG-1 (IL-2 2.5 ng/mL) [10] = test: as above; settings: 72 h
NKL (IL-2 2.5 ng/mL) [11] = test: as above; settings: 72 h
YT (IL-2 2.5 ng/mL) [12] = test: as above; settings: 72 h
IMC-1 (IL-2 20 ng/mL) [13] = test: as above; settings: 72 h
DERL-7 (IL-2 2.5 ng/mL) [14] = test: as above; settings: 72 h
NK-92 (IL-2 2.5 ng/mL) [15] = test: as above; settings: 72 h
[16] = tested on: normal primary NK cells, pool 3 (3 donors) (IL-2 2.5 ng/mL); test: as above; settings: 72 h
NK-YS (IL-2 2.5 ng/mL) [17] = test: as above; settings: 72 h
[18] = tested on: normal primary NK cells, pool 1 (3 donors) (IL-2 2.5 ng/mL); test: as above; settings: 72 h
SNK-6 (IL-2 2.5 ng/mL) [19] = test: as above; settings: 72 h
[20] = tested on: normal primary NK cells, pool 1 (3 donors), resting (IL-2 0 ng/mL); test: drug sensitivity score (DSS) (DSS units); higher = more sensitive; extreme values may be limits of the assay; settings: 72 h
[21] = tested on: normal primary NK cells, pool 2 (3 donors) (IL-2 2.5 ng/mL); test: as above; settings: 72 h
KAI3 (IL-2 2.5 ng/mL) [22] = test: as above; settings: 72 h
KHYG-1 (IL-2 2.5 ng/mL) [23] = test: as above; settings: 72 h
NKL (IL-2 2.5 ng/mL) [24] = test: as above; settings: 72 h
YT (IL-2 2.5 ng/mL) [25] = test: as above; settings: 72 h
IMC-1 (IL-2 20 ng/mL) [26] = test: as above; settings: 72 h
DERL-7 (IL-2 2.5 ng/mL) [27] = test: as above; settings: 72 h
NK-92 (IL-2 2.5 ng/mL) [28] = test: as above; settings: 72 h
[29] = tested on: normal primary NK cells, pool 3 (3 donors) (IL-2 2.5 ng/mL); test: as above; settings: 72 h
NK-YS (IL-2 2.5 ng/mL) [30] = test: as above; settings: 72 h
[31] = tested on: normal primary NK cells, pool 1 (3 donors) (IL-2 2.5 ng/mL); test: as above; settings: 72 h
SNK-6 (IL-2 2.5 ng/mL) [32] = test: as above; settings: 72 h

Structure (SMILES): COc1ccc2c(OCc3nnc4ccc(-c5ccccc5)nn34)ccnc2c1 [AMG-208]
- relative IC50 (DERL-7 (IL-2 2.5 ng/mL) [1]): > 2500 nM

Structure (SMILES): C=C(c1ccc(C(=O)O)cc1)c1cc2c(cc1C)C(C)(C)CCC2(C)C [Bexarotene]
- relative IC50 (NKL (IL-2 2.5 ng/mL) [2]): 208 nM

Structure (SMILES): C[C@H](Nc1ncnc2nc[nH]c12)c1cc2cccc(Cl)c2c(=O)n1-c1ccccc1 [Duvelisib]
- relative IC50 (DERL-7 (IL-2 2.5 ng/mL) [1]): 44.5 nM

Structure (SMILES): CC(C)NC[C@@H](C(=O)N1CCN(c2ncnc3c2[C@H](C)C[C@H]3O)CC1)c1ccc(Cl)cc1 [GDC-0068]
- relative IC50 (DERL-7 (IL-2 2.5 ng/mL) [1]): 1030 nM

Structure (SMILES): NC(=O)NO [Hydroxyurea]
- relative IC50 (KAI3 (IL-2 2.5 ng/mL) [3]): 2630 nM

Structure (SMILES): Nc1nc(OCc2cc(Br)cs2)c2[nH]cnc2n1 [Lomeguatrib]
- relative IC50 (NKL (IL-2 2.5 ng/mL) [2]): 1900 nM

Structure (SMILES): NC1(c2ccc(-c3nc4ccn5c(=O)[nH]nc5c4cc3-c3ccccc3)cc2)CCC1 [MK-2206]
- relative IC50 (DERL-7 (IL-2 2.5 ng/mL) [1]): 103 nM

Structure (SMILES): O=c1sn(-c2cccc3ccccc23)c(=O)n1Cc1ccccc1 [Tideglusib]
- relative IC50 (NK-92 (IL-2 2.5 ng/mL) [4]): > 3000 nM

Structure (SMILES): NC(=S)N/N=C/c1ncccc1N [Triapine] (max concentration tested 10000 nM)
- drug sensitivity score [5]: 10.1
- percent inhibition of viability ([6]; 1 nM): -2.67%
- percent inhibition of viability ([6]; 10 nM): -8.24%
- percent inhibition of viability ([6]; 100 nM): -2.71%
- percent inhibition of viability ([6]; 1000 nM): 55%
- percent inhibition of viability ([6]; 10000 nM): 64.6%
- percent inhibition of viability ([7]; 1 nM): -6.48%
- percent inhibition of viability ([7]; 10 nM): -20.7%
- percent inhibition of viability ([7]; 100 nM): -16.6%
- percent inhibition of viability ([7]; 1000 nM): 22.7%
- percent inhibition of viability ([7]; 10000 nM): 85.8%
- percent inhibition of viability ([8]; 1 nM): -9.87%
- percent inhibition of viability ([8]; 10 nM): -3.04%
- percent inhibition of viability ([8]; 100 nM): -3.45%
- percent inhibition of viability ([8]; 1000 nM): 8.38%
- percent inhibition of viability ([8]; 10000 nM): 40%
- percent inhibition of viability (KAI3 (IL-2 2.5 ng/mL) [9]; 1 nM): -5.83%
- percent inhibition of viability (KAI3 (IL-2 2.5 ng/mL) [9]; 10 nM): 4.79%
- percent inhibition of viability (KAI3 (IL-2 2.5 ng/mL) [9]; 100 nM): 3.83%
- percent inhibition of viability (KAI3 (IL-2 2.5 ng/mL) [9]; 1000 nM): 32.7%
- percent inhibition of viability (KAI3 (IL-2 2.5 ng/mL) [9]; 10000 nM): 93.6%
- percent inhibition of viability (KHYG-1 (IL-2 2.5 ng/mL) [10]; 1 nM): -1.53%
- percent inhibition of viability (KHYG-1 (IL-2 2.5 ng/mL) [10]; 10 nM): -0.9%
- percent inhibition of viability (KHYG-1 (IL-2 2.5 ng/mL) [10]; 100 nM): -1.65%
- percent inhibition of viability (KHYG-1 (IL-2 2.5 ng/mL) [10]; 1000 nM): 73.7%
- percent inhibition of viability (KHYG-1 (IL-2 2.5 ng/mL) [10]; 10000 nM): 97.9%
- percent inhibition of viability (NKL (IL-2 2.5 ng/mL) [11]; 1 nM): -2.42%
- percent inhibition of viability (NKL (IL-2 2.5 ng/mL) [11]; 10 nM): -1.96%
- percent inhibition of viability (NKL (IL-2 2.5 ng/mL) [11]; 100 nM): -11.9%
- percent inhibition of viability (NKL (IL-2 2.5 ng/mL) [11]; 1000 nM): -7.16%
- percent inhibition of viability (NKL (IL-2 2.5 ng/mL) [11]; 10000 nM): 92.3%
- percent inhibition of viability (YT (IL-2 2.5 ng/mL) [12]; 1 nM): 0.85%
- percent inhibition of viability (YT (IL-2 2.5 ng/mL) [12]; 10 nM): 0.16%
- percent inhibition of viability (YT (IL-2 2.5 ng/mL) [12]; 100 nM): -3.39%
- percent inhibition of viability (YT (IL-2 2.5 ng/mL) [12]; 1000 nM): -10%
- percent inhibition of viability (YT (IL-2 2.5 ng/mL) [12]; 10000 nM): 74.8%
- percent inhibition of viability (IMC-1 (IL-2 20 ng/mL) [13]; 1 nM): -5.06%
- percent inhibition of viability (IMC-1 (IL-2 20 ng/mL) [13]; 10 nM): 0.28%
- percent inhibition of viability (IMC-1 (IL-2 20 ng/mL) [13]; 100 nM): -5.51%
- percent inhibition of viability (IMC-1 (IL-2 20 ng/mL) [13]; 1000 nM): -12.1%
- percent inhibition of viability (IMC-1 (IL-2 20 ng/mL) [13]; 10000 nM): 98%
- percent inhibition of viability (DERL-7 (IL-2 2.5 ng/mL) [14]; 1 nM): -1.06%
- percent inhibition of viability (DERL-7 (IL-2 2.5 ng/mL) [14]; 10 nM): 2.72%
- percent inhibition of viability (DERL-7 (IL-2 2.5 ng/mL) [14]; 100 nM): -5.08%
- percent inhibition of viability (DERL-7 (IL-2 2.5 ng/mL) [14]; 1000 nM): -8.15%
- percent inhibition of viability (DERL-7 (IL-2 2.5 ng/mL) [14]; 10000 nM): 97.7%
- percent inhibition of viability (NK-92 (IL-2 2.5 ng/mL) [15]; 1 nM): -11.5%
- percent inhibition of viability (NK-92 (IL-2 2.5 ng/mL) [15]; 10 nM): -5.21%
- percent inhibition of viability (NK-92 (IL-2 2.5 ng/mL) [15]; 100 nM): -2.75%
- percent inhibition of viability (NK-92 (IL-2 2.5 ng/mL) [15]; 1000 nM): 61.1%
- percent inhibition of viability (NK-92 (IL-2 2.5 ng/mL) [15]; 10000 nM): 90.6%
- percent inhibition of viability ([16]; 1 nM): -6.53%
- percent inhibition of viability ([16]; 10 nM): -8.38%
- percent inhibition of viability ([16]; 100 nM): -5.12%
- percent inhibition of viability ([16]; 1000 nM): 15.8%
- percent inhibition of viability ([16]; 10000 nM): 38.7%
- percent inhibition of viability (NK-YS (IL-2 2.5 ng/mL) [17]; 1 nM): -1.66%
- percent inhibition of viability (NK-YS (IL-2 2.5 ng/mL) [17]; 10 nM): -1.59%
- percent inhibition of viability (NK-YS (IL-2 2.5 ng/mL) [17]; 100 nM): -1.57%
- percent inhibition of viability (NK-YS (IL-2 2.5 ng/mL) [17]; 1000 nM): 26.8%
- percent inhibition of viability (NK-YS (IL-2 2.5 ng/mL) [17]; 10000 nM): 95.1%
- percent inhibition of viability ([18]; 1 nM): -6.36%
- percent inhibition of viability ([18]; 10 nM): -11%
- percent inhibition of viability ([18]; 100 nM): -8.82%
- percent inhibition of viability ([18]; 1000 nM): 4.76%
- percent inhibition of viability ([18]; 10000 nM): 57.7%
- percent inhibition of viability (SNK-6 (IL-2 2.5 ng/mL) [19]; 1 nM): 4.11%
- percent inhibition of viability (SNK-6 (IL-2 2.5 ng/mL) [19]; 10 nM): 13%
- percent inhibition of viability (SNK-6 (IL-2 2.5 ng/mL) [19]; 100 nM): 14.7%
- percent inhibition of viability (SNK-6 (IL-2 2.5 ng/mL) [19]; 1000 nM): -6.98%
- percent inhibition of viability (SNK-6 (IL-2 2.5 ng/mL) [19]; 10000 nM): 89.7%
- drug sensitivity score [20]: 8.2
- drug sensitivity score [21]: 3.34
- drug sensitivity score (KAI3 (IL-2 2.5 ng/mL) [22]): 9.5
- drug sensitivity score (KHYG-1 (IL-2 2.5 ng/mL) [23]): 13.8
- drug sensitivity score (NKL (IL-2 2.5 ng/mL) [24]): 4.61
- drug sensitivity score (YT (IL-2 2.5 ng/mL) [25]): 3.49
- drug sensitivity score (IMC-1 (IL-2 20 ng/mL) [26]): 4.69
- drug sensitivity score (DERL-7 (IL-2 2.5 ng/mL) [27]): 4.86
- drug sensitivity score (NK-92 (IL-2 2.5 ng/mL) [28]): 12.1
- drug sensitivity score [29]: 4.03
- drug sensitivity score (NK-YS (IL-2 2.5 ng/mL) [30]): 9.25
- drug sensitivity score [31]: 3.86
- drug sensitivity score (SNK-6 (IL-2 2.5 ng/mL) [32]): 4.48

Reference: the supplement of paper PMC5908809
